From article PMC7561186, “Rational design of balanced dual-targeting antibiotics with limited resistance” (PLoS Biology, 2020)
Several values for one entry are separate records, joined by “and”; a condition that tells them apart may be missing. Identical values can stand only once. Like-named read-outs stand apart in the source and are kept apart here.

What was measured:
[1] = tested on: novobiocin-resistant S. aureus VISA ATCC 700699 mutants; experiment: MIC against novobiocin-resistant (novobiocin-adapted) strains; type: cell-based; conditions: for MIC: Staphylococcus aureus
Protocol: (§1) MICs were determined using a standard serial broth microdilution technique according to the CLSI guidelines. Briefly, bacterial strains were inoculated onto MHBII agar plates and were grown overnight at 37 °C. Next, 3 individual colonies from each strain were inoculated into 1 mL MHBII medium and propagated at 37 °C, 250 rpm overnight. In the cases of Enterococcus and Streptococcus sp., cells were plated to BHI agar plates, and BHI broth was used to determine MICs. […] Following dilutions, each well was seeded with 5×10^4 bacterial cells. All measurements were performed in 3 parallel replicates and to avoid possible edge effects in microwell plates, side rows (A and H) were filled with sterile medium. Following inoculations, plates were covered with lids and wrapped in polyethylene plastic bags to minimize evaporation but allow for O2 transfer. Plates were incubated at 37 °C under continuous shaking at 150 rpm for 18 hours. After incubation, OD600 of each well was measured using a BioTek Synergy 2 microplate reader.

in vitro = conditions: human
Protocol: Cytotoxicity of compounds on HepG2 and MCF-7 mammalian cell lines was determined by using a standard LDH assay. Briefly, HepG2 and MCF-7 cells were cultured in Eagle’s MEM medium (from Gibco) supplemented with 2 mM L-glutamine (Sigma), 100 U/mL penicillin (Sigma), and 100 μg/mL streptomycin (Sigma), and 10% FBS (Gibco) at 37 °C and under 5% CO2. Next, LDH assays were performed according to manufacturer instructions (Thermo Fisher Scientific, Massachusetts, USA). By using a CyQUANT LDH Cytotoxicity Assay Kit. Firstly, the cells were seeded in 96-well microtiter plates at 10^5 cells/mL (100 μL/well) and allowed to attach overnight. […] Lysis buffer (10 μL, Thermo Fisher Scientific) was then added to the maximal LDH activity control wells and incubated additional 45 minutes. The cell culture supernatant (50 μL) was then transferred to a new 96-well plate and mixed with 50 μL of the reaction mixture. After 30 minutes on room temperature, reactions were stopped with 50 μL of the Stop solution. Absorbance (490 nm and 680 nm) was measured with the automatic microplate reader Synergy 4 Hybrid Microplate Reader (BioTek, VT, USA). All experiments were performed in triplicates and repeated 3 times. Statistical significance (P < 0.05) was calculated with 2-tailed Welch’s t-test between treated groups and DMSO. The percentage of cytotoxicity was determined according to the following equation: %Cytotoxicity=(CompoundtreatedLDHactivity-SpontaneousLDHactivity/MaximumLDHactivity-SpontaneousLDHactivity)*100

CHO-K1 cells = type: cell-based, hamster; conditions: for % Micronucleated cells / Micronucleus Test Result: 4 hours, CHO-K1
Protocol: Genetic toxicity analysis of compounds was performed in an in vitro micronucleus test, according to the protocol described in Diaz and colleagues (2007), at Eurofins Panlabs (St. Charles, MO, US). Micronucleated cells and micronuclei were enumerated by the use of high-content fluorescent cell imaging. The assay was performed on CHO-K1 cells. […] Experiments were performed in 2 biological replicates. All cell lines were tested as being negative for Mycoplasma contamination.

[2] = tested on: S. aureus ATCC 700699 VISA; experiment: Time-dependent killing; type: cell-based; conditions: for Time-kill bacterial count: 10xMIC; for Colony numbers: time-kill raw counts, Samples 1-3
Protocol: Time-dependent killing experiments were performed as previously. S. aureus ATCC 700699 VISA cells were inoculated to MHBII agar plates and grown overnight at 37 °C. Next, 3 independent stationer-phase starter cultures were grown at 37 °C, 250 rpm overnight, in 3 × 1 mL MHBII broth. Next, 100-fold diluted cultures were prepared from each in 20 mL fresh MHBII medium and grown at 37 °C, 250 rpm until early exponential phase (OD600 = 0.3–0.4; i.e., 5 × 10^5 cells/mL). […] Cells were treated with antibiotics in Erlenmeyer flasks at 37 °C, 150 rpm for 48 hours. […] Next, 50 μL from each dilution were plated on MHBII agar plates, and plates were incubated overnight at 37 °C to calculate CFU per mL.

Enterococcus faecalis = experiment: MIC, broth microdilution (CLSI); type: cell-based; conditions: Enterococcus faecalis ATCC 29212
Protocol: as §1

Acinetobacter baumannii = experiment: MIC, broth microdilution (CLSI); type: cell-based
Protocol: as §1

Streptococcus pneumoniae = experiment: MIC, broth microdilution (CLSI); type: cell-based
Protocol: as §1

Escherichia coli = experiment: MIC, broth microdilution (CLSI); type: cell-based; conditions: Escherichia coli ATCC 25922
Protocol: as §1

Clostridium difficile = experiment: MIC, broth microdilution (CLSI); type: cell-based
Protocol: as §1

Neisseria gonorrhoeae = experiment: MIC, broth microdilution (CLSI); type: cell-based
Protocol: as §1

Shigella flexneri = experiment: MIC, broth microdilution (CLSI); type: cell-based
Protocol: as §1

Haemophilus influenzae = experiment: MIC, broth microdilution (CLSI); type: cell-based
Protocol: as §1

Streptococcus pyogenes = experiment: MIC, broth microdilution (CLSI); type: cell-based
Protocol: as §1

Klebsiella pneumoniae = experiment: MIC, broth microdilution (CLSI); type: cell-based; conditions: Klebsiella pneumoniae ATCC 10031
Protocol: as §1

Pseudomonas aeruginosa = experiment: MIC, broth microdilution (CLSI); type: cell-based
Protocol: as §1

Staphylococcus aureus = experiment: MIC, broth microdilution (CLSI); type: cell-based
Protocol: as §1

Helicobacter pylori = experiment: MIC, broth microdilution (CLSI); type: cell-based; conditions: Helicobacter pylori ATCC 43504
Protocol: as §1

human red blood cells = experiment: Haemolysis analysis
Protocol: Next, 600 μl of this EDTA-treated blood was washed in TBS buffer (10 mM TRIS, 150 mM NaCl [pH 7.2]) and centrifuged at 1,500 g for 1 minute until the supernatant became colorless. The aliquot of the final pellet (200 μL) was diluted to 5 mL with TBS buffer. […] Next, 100 μL of red blood cell suspension was pipetted into sterile Eppendorf tubes together with 100 μL of 2-fold serial dilution of the compounds (final concentration ranged between 100 μg/mL–0.1 μg/mL in a final volume of 200 μL). The plate was incubated for one hour at 37 °C followed by centrifugation at 1,500 g for 1 minute to sediment all red blood cells. Next, all supernatants were subjected to LDH and Haemolysis-Icterus-Lipaemia (HIL) index determination on a Roche Modular P800 analyzer according to the manufacturer’s instructions. After completion of this step the rest of the supernatants were transferred to sterile 96-well plates for the measurement of their optical density at 560-nm wavelength (in a Multiskan FC microplate reader, Thermo Scientific). Melittin (Bachem) at a concentration of 50 μg/mL, and TBS and 10% DMSO/TBS were served as positive (100% hemolysis) and negative (no hemolysis) controls, respectively.

Structure (SMILES): Cc1[nH]c(C(=O)Nc2nc3c(OCc4ccccc4)cc(C(=O)O)cc3s2)c(Cl)c1Cl [ULD2]
- cross-resistance of novobiocin-resistant isolates ([1]; 9 independently evolved novobiocin-resistant isolates, in words): no cross-resistance
- MIC ([1]; WT S. aureus VISA ATCC 700699, read-out: MIC): 0.02 µg/mL
- MIC ([1]; novobiocin-adapted Evolved 1): 0.016 µg/mL
- MIC ([1]; novobiocin-adapted Evolved 2): 0.016 µg/mL
- MIC ([1]; novobiocin-adapted Evolved 3): 0.016 µg/mL
- MIC ([1]; novobiocin-adapted Evolved 4): 0.063 µg/mL
- MIC ([1]; novobiocin-adapted Evolved 5): 0.031 µg/mL
- MIC ([1]; novobiocin-adapted Evolved 6): 0.016 µg/mL
- MIC ([1]; novobiocin-adapted Evolved 7): 0.016 µg/mL
- MIC ([1]; novobiocin-adapted Evolved 8): 0.016 µg/mL
- MIC ([1]; novobiocin-adapted Evolved 9): 0.016 µg/mL
- IC50 (in vitro): > 100 µM
- % Micronucleated cells (CHO-K1 cells; 1.3 x 10^-4 M): 1.07%
- Micronucleus Test Result (CHO-K1 cells; 1.3 x 10^-4 M): - (A negative test (-) result indicates P > 0.05 by t-test and percentage of micronucleated cells less than 2-fold higher than the background level)
- % Micronucleated cells (CHO-K1 cells; 2.5 x 10^-4 M): 1.36%
- Micronucleus Test Result (CHO-K1 cells; 2.5 x 10^-4 M): - (A negative test (-) result indicates P > 0.05 by t-test and percentage of micronucleated cells less than 2-fold higher than the background level)
- % Micronucleated cells (CHO-K1 cells; 3.1 x 10^-5 M): 0.57%
- Micronucleus Test Result (CHO-K1 cells; 3.1 x 10^-5 M): - (A negative test (-) result indicates P > 0.05 by t-test and percentage of micronucleated cells less than 2-fold higher than the background level)
- % Micronucleated cells (CHO-K1 cells; 5.0 x 10^-4 M): 0.78%
- Micronucleus Test Result (CHO-K1 cells; 5.0 x 10^-4 M): - (A negative test (-) result indicates P > 0.05 by t-test and percentage of micronucleated cells less than 2-fold higher than the background level)
- % Micronucleated cells (CHO-K1 cells; 6.2 x 10^-5 M): 0.49%
- Micronucleus Test Result (CHO-K1 cells; 6.2 x 10^-5 M): - (A negative test (-) result indicates P > 0.05 by t-test and percentage of micronucleated cells less than 2-fold higher than the background level)
- genetic toxicity (CHO-K1 cells; CHO-K1 micronucleus assay, in words): No genetic toxicity
- Time-kill bacterial count ([2]; time 0 hour): 2.80E+05
- Time-kill bacterial count ([2]; time 3 hour): 9.90E+04
- Time-kill bacterial count ([2]; time 6 hour): 5.60E+04
- Time-kill bacterial count ([2]; time 12 hour): 7.00E+03
- Time-kill bacterial count ([2]; time 18 hour): 4.90E+02
- Time-kill bacterial count ([2]; time 24 hour): 1.90E+02
- Time-kill bacterial count ([2]; time 48 hour): 1.70E+01
- cell killing (bactericidal) activity ([2]; 10× MIC, S. aureus ATCC 700699 (VISA), in words): exceed that of fusidic acid
- Colony numbers ([2]; time 0 h, Dilution 100): 145 and 132 and 137
- Colony numbers ([2]; time 3 h, Dilution 100): 56 and 39 and 53
- Colony numbers ([2]; time 6 h, Dilution 100): 28 and 24 and 32
- Colony numbers ([2]; time 18 h, Dilution 1): 31 and 22 and 20
- Colony numbers ([2]; time 48 h, Dilution 0.5): 1 and 2
- MIC (Enterococcus faecalis): < 0.0312 µg/mL
- MIC (Acinetobacter baumannii; ATCC19606, Acinetobacter baumannii ATCC 19606): 0.5 µg/mL
- MIC (Acinetobacter baumannii; Acinetobacter baumannii ATCC 17978): 2 µg/mL
- MIC (Acinetobacter baumannii; Acinetobacter baumannii ATCC 19606): 0.5 µg/mL
- MIC (Streptococcus pneumoniae; Streptococcus pneumoniae ATCC 49619): 0.25 µg/mL
- MIC (Streptococcus pneumoniae; Streptococcus pneumoniae ATCC 51916): 0.25 µg/mL
- MIC (Streptococcus pneumoniae; Streptococcus pneumoniae ATCC 700673): 0.25 µg/mL
- MIC (Escherichia coli): 16 µg/mL
- MIC (Clostridium difficile; Clostridioides difficile, BAA1875): ≤ 0.0312 µg/mL
- MIC (Clostridium difficile; Clostridium difficile BAA-1875): < 0.0312 µg/mL
- MIC (Neisseria gonorrhoeae; CCUG57598, Neisseria gonorrhoeae CCUG 57598): ≤ 0.0312 µg/mL
- MIC (Neisseria gonorrhoeae; Neisseria gonorrhoeae ATCC 700825): < 0.0312 µg/mL
- MIC (Neisseria gonorrhoeae; Neisseria gonorrhoeae CCUG 57598): < 0.0312 µg/mL
- MIC (Shigella flexneri; Shigella flexneri 668): 16 µg/mL
- MIC (Shigella flexneri; Shigella flexneri HNCMB 20018): 8 µg/mL
- MIC (Haemophilus influenzae; ATCC49247, Haemophilus influenzae ATCC 49247): 0.125 µg/mL
- MIC (Haemophilus influenzae; Haemophilus influenzae ATCC 35056): 1 µg/mL
- MIC (Haemophilus influenzae; Haemophilus influenzae ATCC 49247): 0.125 µg/mL
- MIC (Streptococcus pyogenes; Streptococcus pyogenes ATCC 14289): 0.25 µg/mL
- MIC (Streptococcus pyogenes; Streptococcus pyogenes ATCC 19615): 0.125 µg/mL
- MIC (Klebsiella pneumoniae; ATCC10031): 4 µg/mL
- MIC (Klebsiella pneumoniae): 4 µg/mL
- MIC (Pseudomonas aeruginosa; ATCC27853, Pseudomonas aeruginosa ATCC 27853): 2 µg/mL
- MIC (Pseudomonas aeruginosa; Pseudomonas aeruginosa ATCC 27853): 2 µg/mL
- MIC (Pseudomonas aeruginosa; Pseudomonas aeruginosa B3-1811, Ciprofloxacin-R, Cephalosporin-R): 16 µg/mL
- MIC (Staphylococcus aureus; Staphylococcus aureus (strain not given), MRSA (SCCmec type IV), Oxacillin-R, VSSA, Cephalosporin-R, Erythromycin-R): 0.063 µg/mL
- MIC (Staphylococcus aureus; Staphylococcus aureus ATCC 29213): 0.5 µg/mL
- MIC (Staphylococcus aureus; Staphylococcus aureus ATCC 33594, MSSA, VSSA): 0.125 µg/mL
- MIC (Staphylococcus aureus; Staphylococcus aureus ATCC 43300, MRSA): 0.0625 µg/mL
- MIC (Staphylococcus aureus; Staphylococcus aureus ATCC 700699 (Mu50, NRS1), MRSA, VISA): < 0.0312 µg/mL
- MIC (Staphylococcus aureus; Staphylococcus aureus CDC AR-BANK 0218, MRSA, VISA): 0.125 µg/mL
- MIC (Staphylococcus aureus; Staphylococcus aureus ECL 2963646, MRSA, VRSA): < 0.0312 µg/mL
- MIC (Staphylococcus aureus; Staphylococcus aureus NRS271, MRSA, Linezolid-R): 0.25 µg/mL
- MIC (Staphylococcus aureus; Staphylococcus aureus USA300, ATCC BAA-1717, MRSA): 0.063 µg/mL
- MIC (Staphylococcus aureus; Staphylococcus aureus USA400, BAA-1707, NRS123, MRSA): 0.125 µg/mL
- MIC (Staphylococcus aureus; Staphylococcus aureus, ATCC 700699 / MRSA / NRS 1 / VISA, S. aureus ATCC 700699 (Mu50, NRS1), MRSA, VISA): ≤ 0.0312 µg/mL
- MIC (Staphylococcus aureus; Staphylococcus aureus, S. aureus ECL 2963646, MRSA, VRSA): ≤ 0.0312 µg/mL
- MIC (Helicobacter pylori): 4 µg/mL
- LDH activity (human red blood cells; human red blood cells, 100 µg/mL): 10 Unit/mL
- hemolytic activity on human red blood cells (human red blood cells; in words): no biocompatibility concerns
